Test results from publication PMC12040169 (PLOS Biology, 2025).

Assay: in vitro
Conditions: human, hela cells, % viability

| SMILES | viability at 28.5 h, 10 µM [%] | viability at 28.5 h, 10 µM (bulk resorufin, single well) [%] |
| --- | --- | --- |
| O=C1NC2=C(C(=O)N(CCN3CCCC3)C2)C(c2cccc(F)c2)N1 (centres unmarked) [CBK282365] | 105 |  |
| Cc1nn(C)cc1C(=O)N1CCCC1c1nc2ccccc2[nH]1 (centres unmarked) [CBK282371] | 84.7 |  |
| Cn1c(N2CCCC(C(N)=O)C2)nc2ccccc21 (centres unmarked) [CBK282372] | 105 |  |
| Cc1ccnn1CCC(=O)N1CCCCC1c1nc2ccccc2[nH]1 (centres unmarked) [CBK282374] | 105 |  |
| C=CCn1c(C)c(CN2CCc3nc(C)[nH]c(=O)c3C2)c2ccccc21 [CBK282375] | 97.3 |  |
| C=CCn1cc(CN2CCc3nc(C)[nH]c(=O)c3C2)c2ccccc21 [CBK282376] | 85.9 |  |
| CCc1c(C)sc2ncn(C3CCN(C(=O)C(C)C)CC3)c(=O)c12 [CBK282377] | 81.1 |  |
| CC1CN(C(=O)c2ncoc2-c2ccc(F)cc2)CC(C)O1 (centres unmarked) [CBK282379] | 90 |  |
| O=C(CC1CCCC1)NCCn1nc(-c2cccs2)oc1=O [CBK282386] | 87.2 |  |
| CCOC(=O)Cn1ncc2c3sc(C)cc3n(C)c2c1=O [CBK282388] | 96.2 |  |
| CC[C@H](N)Cn1nc(-c2cccs2)oc1=O [CBK282393] |  | 82.6 |
| O=C(CCn1ncc2ccccc21)N1CCC(c2ccncc2)CC1 [CBK282395] | 82 |  |
| CC(C(=O)N1CCC(O)(c2ccccn2)CC1)c1ccccc1 (centres unmarked) [CBK282396] | 102 |  |
| O=C(c1csc2c1CCCC2)N1CCC(O)(c2ccccn2)CC1 [CBK282397] | 107 |  |
| CC(=O)N1CCCN(C(=O)c2ncoc2-c2ccc(F)cc2)CC1 [CBK282398] | 85.2 |  |
| O=C(c1ncoc1-c1ccc(F)cc1)N1CCN2CCCC2C1 (centres unmarked) [CBK282399] | 90.1 |  |
| C=CCNC(=O)C1CN(C)CC12CCc1ccccc1C(=O)N2 (centres unmarked) [CBK282401] | 83 |  |
| O=C(NCCCn1ccnc1)c1ncoc1-c1cccs1 [CBK282404] | 92.7 |  |
| Cc1sc2nc(C(C)C)n(C3CCNCC3)c(=O)c2c1C [CBK282407] | 100 |  |
| CC(NC(=O)c1ncoc1-c1ccccc1Cl)c1ccccn1 (centres unmarked) [CBK282409] | 94.8 |  |
| Cc1c(C(=O)N2CCC(c3ccncc3)CC2)oc2ccccc12 [CBK282413] | 109 |  |
| Cc1nc2c(c(=O)[nH]1)CN(C1CCCCC1)CC2 [CBK282416] | 82.2 |  |
| Cc1cccc(-c2ocnc2C(=O)NCCCn2ccnc2)c1 [CBK282418] | 80.1 |  |
| CCn1c(N2CCCC(C(=O)NC3CC3)C2)nc2ccccc21 (centres unmarked) [CBK282419] | 106 |  |

| SMILES | viability at 28.5 h, 10 µM [%] | viability at 28.5 h, 10 µM (bulk resorufin, single well) [%] |
| --- | --- | --- |
| O=C(NC1CC2(CCCC2)Oc2ccccc21)C1CCCO1 (centres unmarked) [CBK282420] | 110 |  |
| O=C(C1CCCC1)N1CCC(n2nc(-c3cccs3)oc2=O)CC1 [CBK282424] | 87.5 |  |
| O=C(c1cc(C2CC2)on1)N1CCn2cc(C(F)(F)F)nc2C1 [CBK282425] | 85.4 |  |
| Cc1nc2cccnc2n1C1CCN(C(=O)C(C)(C)C)CC1 [CBK282426] | 89.2 |  |
| Cc1cccc(-c2ocnc2C(=O)NC(C)c2ccccn2)c1 (centres unmarked) [CBK282427] | 87.4 |  |
| Cc1cc(C(=O)N2CCn3cc(C(F)(F)F)nc3C2)on1 [CBK282430] | 101 |  |
| Cc1noc(C)c1C(=O)N1CCn2cc(C(F)(F)F)nc2C1 [CBK282431] | 90.2 |  |
| COc1ccc2cc3c(nc2c1)OC(=O)N(CC1CC1)C3 [CBK282432] | 86.8 |  |
| O=C(CN1C(=O)[C@@H]2CCCN2C(=O)c2ccccc21)N1CCCC1 [CBK282434] | 104 |  |
| Cc1csc(C(Cc2ccsc2)NCC2=CCCOC2)n1 (centres unmarked) [CBK282439] | 101 |  |
| CC(Cc1cccs1)NC(=O)c1cccc(-n2cnnc2)c1 (centres unmarked) [CBK282443] | 102 |  |
| Cc1ccc2n1CCN(C(=O)c1cccc(-n3cnnc3)c1)C2C(C)C (centres unmarked) [CBK282444] | 105 |  |
| CC(Cc1cccs1)NC(=O)c1cc(-c2ccccn2)n[nH]1 (centres unmarked) [CBK282446] | 104 |  |
| Cc1ccc2n1CCN(C(=O)c1cc(-c3ccccn3)n[nH]1)C2C(C)C (centres unmarked) [CBK282447] | 101 |  |
| O=C(NC1CC1)c1ccc(-n2cccn2)c(C#Cc2cccnc2)c1 [CBK282449] | 107 |  |
| O=C(NCCN1CCC(O)(c2cccc(F)c2)CC1)c1cccs1 [CBK282450] | 112 |  |
| O=C(NCCN1CCC(O)(c2cccc(F)c2)CC1)C1CC=CCC1 (centres unmarked) [CBK282451] | 101 |  |
| O=C(Cn1c(-c2cccs2)cc2cccnc21)N1CCOCC1 [CBK282452] | 101 |  |
| O=C(Cn1c(-c2cccs2)cc2cccnc21)N1CCCC1 [CBK282453] | 83 |  |
| O=C(Cn1c(-c2cccs2)cc2cccnc21)NCc1ccncc1 [CBK282456] | 104 |  |
| O=C(Cn1c(-c2cccs2)cc2cccnc21)NCc1cccnc1 [CBK282457] | 105 |  |
| O=C(Cn1c(-c2cccs2)cc2cccnc21)N1CCC(O)CC1 [CBK282458] | 113 |  |
| Cc1cc(C(=O)NC2CCCOC2)c2cccc(Cl)c2n1 (centres unmarked) [CBK282459] | 95.3 |  |
